The text below walks through data of US20210405025A1, “IDENTIFYING COMPOUNDS FOR TREATING CANCER AND USE THEREOF” (THE UAB RESEARCH FOUNDATION, priority 2018, published 2021).

pIC50: −log10 of the molar value. Where two headings read alike, the source gives them in different places. A value given as a limit tells only on which side of the number the result lay.

The test system of test [1] is relapsed AML cells. In words: Drug sensitivity assay, 1,536-well, 3-day culture with individual approved drugs at 10 μM, viability by alamarBlue. Type of test: cell-based, human. The conditions noted are these: number of relapsed AML cases out of 18 tested with >70% cell death; 10 μM, 3-day culture. In outline:
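Three-day exposure of primary AML cells to individual drugs in 1,536-well format, viability read as percent live cells. Cells were thawed, cultured overnight, sorted by FACS for viable blasts and plated at 4,000-4,500 cells/5 μL in cytokine-supplemented IMDM/BIT medium.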
In general terms: Resazurin is reduced to fluorescent resorufin, in cell work by metabolically active cells.

For test [2], the system named is AML patient samples. In words: 10-point dose-response drug screen of statins against AML patient samples, 3-day drug sensitivity assay. Type of test: cell-based, human. The conditions noted are these: for pIC50: 3-day assay. As for the experimental part: Drug sensitivity assays were performed using a 1,536-well platform where all cells and reagents were deposited in wells using an acoustic liquid handling unit that is highly accurate for dispensing of nanoliter volumes of liquid. […] After dispensing the cells into the wells, an independent drug at a known concentration is added to each well and incubated with the cells. After three days, the percentage of live cells in each well is determined to assess the killing efficiency of each compound. […] Cell viability assays are known to those of skill in the art. See, for example, Pemovska et al., Individualized systems medicine strategy to tailor treatments for patients with chemorefractory acute myeloid leukemia. Cancer Discovery 3:1416-1429, 2013; Pabst et al., Identification of small molecules that support human leukemia stem cell activity ex vivo. Nature Methods 11:436-442, 2014; Baccelli et al., A novel approach for the identification of efficient combination therapies in primary human acute myeloid leukemia specimens. Blood Cancer Journal 7:e529, 2017. In studies described herein, the 1,536-well format was utilized, which allowed for use of four times fewer cells as well as less drug and media components due to the small assay volume of 5 microliters. […] Other compounds like CellTiter-Glo (Promega, Madison, Wis.) are equally appropriate reagents for determining cell viability.
Conditions for the drug screening assays were as described in Pabst et al., Identification of small molecules that support human leukemia stem cell activity ex vivo, Nature Methods 11:436-442, 2014). Using this protocol, cells were cultured in Iscove's Modified Dulbecco's Medium (IMDM), 15% BIT (bovine serum albumin, insulin, transferrin; Stem Cell Technologies 09500 (Vancouver, Calif.)), 100 ng/ml SCF (Shenandoah 100-04 (Warwick, Pa.)), 50 ng/ml FLT3L (Shenandoah 100-21), 20 ng/ml IL-3 (Shenandoah 100-80), 20 ng/ml G-CSF (Shenandoah 100-72), 10^-4 M β-mercaptoethanol, gentamicin (50 μg/ml) and ciprofloxacin (10 μg/ml).
Cells were removed from liquid nitrogen and placed in a 37° C. bath, just until thawed. For 1,536-well screens utilizing 6,000 wells about 100 million cells were thawed. The volume was doubled with pre-warmed culture media and placed on ice for about one to two minutes. The cells were brought to a final volume of about 8 to 10 mL before spinning down at 1,100 rpm for 5 min at 10° C. The pelleted cells were resuspended in 10 mL of culture media and plated in a tissue-culture treated T75 flask at a density of 1 to 2 million cells/ml. The cells were cultured overnight prior to fluorescence-activated cell sorting of viable cells on the following day.
After cells were cultured overnight, a cell scraper was used to remove any cells that adhered to the plastic. The cells were gently pipetted up and down to break up aggregates. Then, the entire volume was transferred to a 50 mL conical tube through a 70 micron cell strainer to remove cell clumps. The T75 flask was rinsed and scraped with about 10 mL HBSS and transferred to the same 50 mL conical tube through the strainer. The harvested cells were spun down at 1,100 rpm for 5 min at 10° C. The cells were then resuspendd in about 300-500 microliters FACS buffer (HBSS+2% FBS+1× propidium iodide) and transferred to a FACS tube. The tube was placed on ice and viable cells that are forward- and side-scatter gated on viable myeloid blasts were sorted by FACS (the scatter gate should exclude small lymphocytes, large myeloid cells, and debris). After sorting the required number of viable cells, the cells were spun down at 1,100 rpm for 5 min at 10° C. and subsequently resuspended at 4,000-4,500 cells per 5 microliter volume of complete culture media with growth factors and penicillin/streptomycin.

Setting [3] is: Homo sapiens, 72 h, patient sample AML 280, read-out: IC50 AML 280.
Setting [4] is: Homo sapiens, 72 h, patient sample AML 285, read-out: IC50 AML 285.
Where [5] appears, read: Homo sapiens, 72 h, patient sample AML 290, read-out: IC50 AML 290.
[6] abbreviates: Homo sapiens, 72 h, patient sample AML 297, read-out: IC50 AML 297.
Setting [7] is: Homo sapiens, 72 h, patient sample AML 299, read-out: IC50 AML 299.
The mark [8] stands for this setting: Homo sapiens, 72 h, patient sample AML 307, read-out: IC50 AML 307.
Where [9] appears, read: Homo sapiens, 72 h, patient sample AML 330, read-out: IC50 AML 330.
Where [10] appears, read: Homo sapiens, 72 h, patient sample AML 339, read-out: IC50 AML 339.
The mark [11] stands for this setting: Homo sapiens, 72 h, patient sample AML 340, read-out: IC50 AML 340.
Setting [12] is: Homo sapiens, 72 h, patient sample AML 343, read-out: IC50 AML 343.
Setting [13] is: patient sample AML 280, read-out: IC50 AML 280.
Where [14] appears, read: patient sample AML 285, read-out: IC50 AML 285.
[15] abbreviates: patient sample AML 290, read-out: IC50 AML 290.
The mark [16] stands for this setting: patient sample AML 297, read-out: IC50 AML 297.
Setting [17] is: patient sample AML 299, read-out: IC50 AML 299.
Setting [18] is: patient sample AML 307, read-out: IC50 AML 307.
The mark [19] stands for this setting: patient sample AML 330, read-out: IC50 AML 330.
[20] abbreviates: patient sample AML 339, read-out: IC50 AML 339.
[21] abbreviates: patient sample AML 340, read-out: IC50 AML 340.
[22] abbreviates: patient sample AML 343, read-out: IC50 AML 343.

As to `CC[C@H](C)C(=O)O[C@H]1C[C@H](O)C=C2C=C[C@H](C)[C@H](CC[C@@H](O)C[C@@H](O)CC(=O)O)[C@H]21` [PRAVASTATIN], the “#Cases >70% cell death” value in test [1] is recorded as 1. Also, the negative-log IC50 (pIC50) in test [2] (setting [3]), in test [2] (setting [4]), in test [2] (setting [5]), in test [2] (setting [6]), in test [2] (setting [7]) and in test [2] (setting [8]) was < 5.00 throughout. For the same compound, the pIC50 in test [2] (setting [9]), in test [2] (setting [10]), in test [2] (setting [11]) and in test [2] (setting [12]) was < 5.00 each time.
On to `CC[C@H](C)C(=O)O[C@H]1C[C@@H](C)C=C2C=C[C@H](C)[C@H](CC[C@@H]3C[C@@H](O)CC(=O)O3)[C@H]21` [LOVASTATIN], for which the “#Cases >70% cell death” value in test [1] is on record as 2. Further, the pIC50 in test [2] (setting [3]) is < 5.00; in test [2] (setting [4]), 5.42; in test [2] (setting [5]), 5.36; in test [2] (setting [6]), < 5.00; in test [2] (setting [7]), < 5.00; in test [2] (setting [8]), < 5.00. Besides, the pIC50 in test [2] (setting [9]) was < 5.00; in test [2] (setting [10]) it was < 5.00; in test [2] (setting [11]) it was 5.05; in test [2] (setting [12]), < 5.00.
With `CCC(C)(C)C(=O)O[C@H]1C[C@@H](C)C=C2C=C[C@H](C)[C@H](CC[C@@H]3C[C@@H](O)CC(=O)O3)[C@H]21` [SIMVASTATIN], in test [1], the “#Cases >70% cell death” value was 6. Moreover, the pIC50 in test [2] (setting [4]) was < 5.00; in test [2] (setting [5]) it was < 5.00; in test [2] (setting [6]), 5.16; in test [2] (setting [7]), < 5.00; in test [2] (setting [8]), < 5.00; in test [2] (setting [9]), < 5.00. For the same compound, the pIC50 is 5.29 in test [2] (setting [10]), < 5.00 in test [2] (setting [11]) and < 5.00 in test [2] (setting [12]).
Turning to `CC(C)c1c(C(=O)Nc2ccccc2)c(-c2ccccc2)c(-c2ccc(F)cc2)n1CC[C@@H](O)C[C@@H](O)CC(=O)[O-].CC(C)c1c(C(=O)Nc2ccccc2)c(-c2ccccc2)c(-c2ccc(F)cc2)n1CC[C@@H](O)C[C@@H](O)CC(=O)[O-].[Ca+2]` [ATORVASTATIN CALCIUM], the “#Cases >70% cell death” value in test [1] was found to be 12. Also, in test [2] (highly sensitive cases 285, 340 and 290, result in words), the statin-mediated killing result is on record as “most significant activity”. The pIC50 in test [2] (setting [13]) was 5.65; in test [2] (setting [14]), 6.32; in test [2] (setting [15]) it was 6.23; in test [2] (setting [16]), < 5.00; in test [2] (setting [17]), 5.54; in test [2] (setting [18]), 5.96. For the same compound, the negative logarithm of the IC50 (pIC50) in test [2] (setting [19]) is < 5.00; in test [2] (setting [20]), 5.04; in test [2] (setting [21]), 6.14; in test [2] (setting [22]) it was < 5.00.
As for `CCC1=C[C@@H]2CN(CCc3c([nH]c4ccccc34)[C@@](C(=O)OC)(c3cc4c(cc3OC)N(C)[C@H]3[C@@](O)(C(=O)OC)[C@H](OC(C)=O)[C@]5(CC)C=CCN6CC[C@]43[C@@H]65)C2)C1` [ANHYDROVINBLASTINE], in test [1], the “#Cases >70% cell death” value is 5.
Regarding `CCN1CCN(Cc2ccc(-c3cc4c(N[C@H](C)c5ccccc5)ncnc4[nH]3)cc2)CC1` [AEE-788], the “#Cases >70% cell death” value in test [1] was found to be 13.
Still for that read-out and setting: next, `C[C@H](CCC(=O)O)[C@H]1CC[C@H]2[C@@H]3[C@@H](O)C[C@@H]4C[C@H](O)CC[C@]4(C)[C@H]3CC[C@]12C` [URSODIOL]: 2; `COc1ccc2cc3[n+](cc2c1OC)CCc1cc2c(cc1-3)OCO2` [BERBERINE CHLORIDE]: 1; `CC1(C)O[C@@H]2C[C@H]3[C@@H]4C[C@H](F)C5=CC(=O)CC[C@]5(C)[C@H]4[C@@H](O)C[C@]3(C)[C@]2(C(=O)CO)O1` [FLURANDRENOLIDE]: 18.
The same measure, in the same setting: next, `O=C(NCC1CCCCN1)c1cc(OCC(F)(F)F)ccc1OCC(F)(F)F` (centres unmarked): 1; `CCCCNc1ccc(C(=O)OCCN(C)C)cc1` [TETRACAINE]: 12; `c1ccc2c(CCNc3ccc(Nc4ccncc4)cc3)c[nH]c2c1`: 12.
For the compound `CC(C)c1nc(N(C)S(C)(=O)=O)nc(-c2ccc(F)cc2)c1/C=C/[C@@H](O)C[C@@H](O)CC(=O)[O-].CC(C)c1nc(N(C)S(C)(=O)=O)nc(-c2ccc(F)cc2)c1/C=C/[C@@H](O)C[C@@H](O)CC(=O)[O-].[Ca+2]` [ROSUVASTATIN CALCIUM (Crestor), ROSUVASTATIN CALCIUM], the “#Cases >70% cell death” value in test [1] was found to be 9. The pIC50 is 5.08 in test [2] (setting [13]); 5.83 in test [2] (setting [14]); 5.84 in test [2] (setting [15]); < 5.00 in test [2] (setting [16]); < 5.00 in test [2] (setting [17]); 5.42 in test [2] (setting [18]). In addition, the pIC50 in test [2] (setting [19]) was < 5.00; in test [2] (setting [20]), < 5.00; in test [2] (setting [21]), 5.60; in test [2] (setting [22]), < 5.00.
Take `CC(=O)[C@@]1(O)CC[C@H]2[C@@H]3C=C(Cl)C4=CC(=O)[C@@H]5C[C@@H]5[C@]4(C)[C@H]3CC[C@@]21C` [CYPROTERONE]: the “#Cases >70% cell death” value in test [1] was 1.
For the compound `Cc1nnc(NS(=O)(=O)c2ccc(N)cc2)s1` [SULFAMETHIZOLE], in test [1], the “#Cases >70% cell death” value came to 18.
Same read-out and setting: then `CCCCCCCCCCC[C@@H](C[C@@H]1OC(=O)[C@H]1CCCCCC)OC(=O)[C@H](CC(C)C)NC=O` [ORLISTAT], with 9.
On the same count and under the same terms, next, `COc1cc2ncnc(Nc3ccc(F)c(Cl)c3)c2cc1OCCCN1CCOCC1` [GEFITINIB]: 2.
Still for that read-out and setting: then `C[C@H]1[C@H](OC(=O)CCC(=O)O)O[C@@H]2O[C@@]3(C)CC[C@H]4[C@H](C)CC[C@@H]1[C@@]24OO3` [ARTESUNATE], with 5; and `COc1ccc(S(=O)(=O)Nc2cccnc2Nc2ccc(O)cc2)cc1` [ABT-751], with 5.
On to `CCN(CC)CCN(Cc1ccc(-c2ccc(C(F)(F)F)cc2)cc1)C(=O)Cn1c(SCc2ccc(F)cc2)nc(=O)c2c1CCC2` [DARAPLADIB], for which the “#Cases >70% cell death” value in test [1] turned out to be 18.
`Cc1nc2ccc(CN(C)c3ccc(C(=O)N[C@@H](CCC(=O)O)C(=O)O)s3)cc2c(=O)[nH]1` [RALTITREXED]: the “#Cases >70% cell death” value in test [1] was 3.

One may read the pIC50 as −log10 of the IC50, conventionally taken in molar units.
